Values after ≈ are worked out from the molar mass of the structure shown.

Results on seven molecules are retold here after patent publication US4002660A, “S-(4-Chlorophenyl)-3-aryl-3-hydroxypropanethioates” (Morton-Norwich Products, Inc., priority 1976, dated 1977).

Holding throughout (assay): antibacterial potency, serial dilution technique (MIC)
Assay type in all cases: cell-based

One test has as its system S. aureus. The following applies: Staphylococcus aureus, read-out: Minimum Inhibitory Concentration.
For another test, the system named is He. Vaginalis. The following applies: Gardnerella vaginalis, read-out: Minimum Inhibitory Concentration.
The next test deals with Co. liquefaciens. The following applies: read-out: Minimum Inhibitory Concentration.
A further test has as its system St. agalactiae. As to conditions: Streptococcus agalactiae, read-out: Minimum Inhibitory Concentration.
For another test, the system named is P. multocida. The following applies: Pasteurella multocida, read-out: Minimum Inhibitory Concentration.

With `O=C(CC(O)c1ccccc1)Sc1ccc(Cl)cc1` (stereo not drawn) [I, S-(4-Chlorophenyl)-3-Hydroxy-3-phenylpropanethioate], the MIC in the test on S. aureus came out at 6.25 µg/mL (≈ 21.3 µM); in the test on He. Vaginalis it was 12.5 µg/mL (≈ 42.7 µM); in the test with Co. liquefaciens, 6.25 µg/mL (≈ 21.3 µM); in the test on St. agalactiae, 3.13 µg/mL (≈ 10.7 µM); in the test on P. multocida, 6.25 µg/mL (≈ 21.3 µM).
As for `Cc1ccc(C(O)CC(=O)Sc2ccc(Cl)cc2)cc1` (stereo not drawn) [II, S-(4-Chlorophenyl) 3-Hydroxy-3-(4-methylphenyl)propanethioate], the MIC turned out to be 12.5 µg/mL (≈ 40.7 µM) with S. aureus; 3.1 µg/mL (≈ 10.1 µM) with He. Vaginalis; 12.5 µg/mL (≈ 40.7 µM) in the test with Co. liquefaciens; 3.13 µg/mL (≈ 10.2 µM) in the test with St. agalactiae; 3.13 µg/mL (≈ 10.2 µM) in the test with P. multocida.
As for `CCc1ccc(C(O)CC(=O)Sc2ccc(Cl)cc2)cc1` (stereo not drawn) [III, S-(4-Chlorophenyl) 3-(4-Ethylphenyl)-3-hydroxypropanethioate], the MIC in the test with S. aureus worked out at 6.25 µg/mL (≈ 19.5 µM); in the test with He. Vaginalis it was 6.25 µg/mL (≈ 19.5 µM); in the test with Co. liquefaciens, 6.25 µg/mL (≈ 19.5 µM); in the test with St. agalactiae, 3.13 µg/mL (≈ 9.76 µM); in the test with P. multocida, 6.25 µg/mL (≈ 19.5 µM).
As to `O=C(CC(O)c1ccc(Cl)cc1)Sc1ccc(Cl)cc1` (stereo not drawn) [IV, S-(4-Chlorophenyl) 3-(4-Chlorophenyl)-3-hydroxypropanethioate], the MIC in the test with S. aureus worked out at 12.5 µg/mL (≈ 38.2 µM); in the test on He. Vaginalis, 3.1 µg/mL (≈ 9.47 µM); with Co. liquefaciens, 6.25 µg/mL (≈ 19.1 µM); in the test on St. agalactiae it was 6.25 µg/mL (≈ 19.1 µM); in the test on P. multocida, 6.25 µg/mL (≈ 19.1 µM).
Turning to `O=C(CC(O)c1ccc(Cl)cc1Cl)Sc1ccc(Cl)cc1` (stereo not drawn) [V, S-(4-Chlorophenyl) 3-(2,4-Dichlorophenyl)-3-hydroxypropanethioate], the MIC in the test on S. aureus is 6.25 µg/mL (≈ 17.3 µM); with He. Vaginalis it was 12.5 µg/mL (≈ 34.6 µM); in the test on Co. liquefaciens, 3.1 µg/mL (≈ 8.57 µM); in the test on St. agalactiae, 12.5 µg/mL (≈ 34.6 µM); with P. multocida, 25 µg/mL (≈ 69.1 µM).
Consider `O=C(CC(O)c1ccc(Cl)c(Cl)c1)Sc1ccc(Cl)cc1` (stereo not drawn) [VI, S-(4-Chlorophenyl) 3-(3,4-Dichlorophenyl)-3-hydroxypropanethioate], for which the MIC is 25 µg/mL (≈ 69.1 µM) in the test on S. aureus; 25 µg/mL (≈ 69.1 µM) with He. Vaginalis; 12.5 µg/mL (≈ 34.6 µM) in the test on Co. liquefaciens; 12.5 µg/mL (≈ 34.6 µM) in the test with St. agalactiae; 25 µg/mL (≈ 69.1 µM) in the test on P. multocida.
As to `Cc1ccc(C(O)CC(=O)Sc2ccc(Cl)cc2)cc1Cl` (stereo not drawn) [VII, S-(4-Chlorophenyl) 3-(3-Chloro-4-methylphenyl)-3-hydroxypropanethioate], the MIC in the test on S. aureus came out at 12.5 µg/mL (≈ 36.6 µM); in the test with He. Vaginalis, 25 µg/mL (≈ 73.3 µM); with Co. liquefaciens, 12.5 µg/mL (≈ 36.6 µM); in the test on St. agalactiae, 12.5 µg/mL (≈ 36.6 µM); with P. multocida, 25 µg/mL (≈ 73.3 µM).
